US10670605B2, “Cysteine reactive probes and uses thereof” (The Scripps Research Institute, priority 2015, dated 2020)
One block for each compound: values may come before it.

Tests used:
Experiment in all cases: Competitive isoTOP-ABPP in situ (fragment-treated cells)
Assay type in all cases: cell-based
[1] = target: T1, cysteines in MDA-MB-231 and Ramos cells (Homo sapiens, UniProt P05091)
T1 sequence (P05091 18-517): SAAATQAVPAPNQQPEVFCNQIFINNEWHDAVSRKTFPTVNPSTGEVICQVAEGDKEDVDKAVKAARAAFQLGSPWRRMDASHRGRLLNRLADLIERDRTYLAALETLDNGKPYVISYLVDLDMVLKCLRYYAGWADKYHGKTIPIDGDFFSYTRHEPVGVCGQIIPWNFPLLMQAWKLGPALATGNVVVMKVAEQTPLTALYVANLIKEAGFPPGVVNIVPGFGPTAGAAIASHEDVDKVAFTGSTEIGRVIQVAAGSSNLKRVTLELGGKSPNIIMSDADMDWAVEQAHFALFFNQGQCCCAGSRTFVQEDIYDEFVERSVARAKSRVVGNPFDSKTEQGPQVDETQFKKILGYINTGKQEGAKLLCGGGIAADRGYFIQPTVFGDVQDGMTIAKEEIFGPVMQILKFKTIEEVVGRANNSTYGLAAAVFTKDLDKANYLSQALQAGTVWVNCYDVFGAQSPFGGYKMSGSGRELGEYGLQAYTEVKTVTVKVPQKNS

[2] = target: cysteines in MDA-MB-231 and Ramos cells (Homo sapiens, UniProt Q8IU81); conditions: 200 μM, insitu, 231
cysteines in MDA-MB-231 and Ramos cells (Homo sapiens, UniProt Q8IU81), sequence (Q8IU81 whole entry): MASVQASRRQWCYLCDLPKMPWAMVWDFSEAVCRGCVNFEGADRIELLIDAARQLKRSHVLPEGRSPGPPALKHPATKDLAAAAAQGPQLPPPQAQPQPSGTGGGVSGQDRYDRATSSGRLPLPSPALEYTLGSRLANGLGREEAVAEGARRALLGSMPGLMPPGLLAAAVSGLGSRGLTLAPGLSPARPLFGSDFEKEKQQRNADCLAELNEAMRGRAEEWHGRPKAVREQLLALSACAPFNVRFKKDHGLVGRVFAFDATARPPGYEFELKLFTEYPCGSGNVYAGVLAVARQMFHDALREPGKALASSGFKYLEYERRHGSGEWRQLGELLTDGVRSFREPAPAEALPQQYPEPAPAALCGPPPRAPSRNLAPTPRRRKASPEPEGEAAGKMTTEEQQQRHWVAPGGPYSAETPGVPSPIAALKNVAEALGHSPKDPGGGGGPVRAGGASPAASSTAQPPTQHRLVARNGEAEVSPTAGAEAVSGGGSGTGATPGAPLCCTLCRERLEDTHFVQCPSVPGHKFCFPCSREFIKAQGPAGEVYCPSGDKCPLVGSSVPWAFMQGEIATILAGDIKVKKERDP

[3] = target: T2, cysteines in MDA-MB-231 and Ramos cells (Homo sapiens, UniProt Q9UPT9)
T2 sequence (Q9UPT9 1-525): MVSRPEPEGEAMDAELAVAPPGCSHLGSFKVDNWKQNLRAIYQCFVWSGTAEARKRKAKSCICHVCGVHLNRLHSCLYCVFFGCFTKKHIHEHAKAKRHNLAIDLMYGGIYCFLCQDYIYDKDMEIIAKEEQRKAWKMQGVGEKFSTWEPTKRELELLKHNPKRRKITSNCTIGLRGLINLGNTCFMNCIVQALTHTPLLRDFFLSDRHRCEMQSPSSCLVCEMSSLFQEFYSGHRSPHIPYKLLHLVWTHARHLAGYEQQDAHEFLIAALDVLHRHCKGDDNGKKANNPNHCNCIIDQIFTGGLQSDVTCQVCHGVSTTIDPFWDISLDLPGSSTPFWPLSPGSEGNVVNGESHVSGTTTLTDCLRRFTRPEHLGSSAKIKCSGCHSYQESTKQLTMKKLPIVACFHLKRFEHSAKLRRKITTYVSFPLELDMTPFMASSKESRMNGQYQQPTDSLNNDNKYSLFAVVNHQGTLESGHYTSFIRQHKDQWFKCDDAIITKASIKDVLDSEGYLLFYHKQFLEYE

[4] = target: T3, cysteines in MDA-MB-231 and Ramos cells (Homo sapiens, UniProt Q9NUI1); conditions: for isoTOP-ABPP ratio Q9NUI1_C22: 200 μM, insitu, 231
T3 sequence (Q9NUI1 1-292): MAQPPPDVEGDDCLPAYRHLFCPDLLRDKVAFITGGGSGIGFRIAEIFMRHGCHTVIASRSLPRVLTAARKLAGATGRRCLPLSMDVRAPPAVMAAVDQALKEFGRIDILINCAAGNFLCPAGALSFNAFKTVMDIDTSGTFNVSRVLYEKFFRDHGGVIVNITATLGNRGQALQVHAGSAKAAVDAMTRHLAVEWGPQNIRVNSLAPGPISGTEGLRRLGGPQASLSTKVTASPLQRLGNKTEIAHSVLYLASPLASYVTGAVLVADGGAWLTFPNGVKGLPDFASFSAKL

- isoTOP-ABPP reactivity P05091_C319 ALDH2 ([1]; 100 μM in situ 231): 20.0
SMILES: COc1ccc(C2CC(c3cccs3)=NN2C(=O)CCl)cc1 (stereo not drawn) [compound 4]

- isoTOP-ABPP ratio, cysteine Q8IU81_C363 [2]: 5.9
- isoTOP-ABPP ratio, cysteine Q9UPT9_C171 ([3]; 200 μM, insitu, ramos): 9.3
SMILES: O=C(CCl)N1CCN(S(=O)(=O)c2ccccc2F)CC1 [compound 10]

- isoTOP-ABPP ratio, cysteine Q9UPT9_C171 ([3]; 200 μM, insitu, ramos): 3.2
SMILES: O=C(CCl)NCCc1c[nH]c2ccccc12 [compound 13]

- isoTOP-ABPP ratio Q8IU81_C363 [2]: 0.7
- isoTOP-ABPP ratio Q9NUI1_C22 [4]: 0.7
SMILES: C=CC(=O)N(Cc1cccnc1)c1cc(C(F)(F)F)cc(C(F)(F)F)c1 [compound 31]

- isoTOP-ABPP ratio Q8IU81_C363 [2]: 1.3
SMILES: C=CC(=O)Nc1cc(F)c(N2CCN(C(=O)OC(C)(C)C)CC2)c(F)c1 [compound 38]

Continued, compound first:

SMILES: Cn1cc(S(=O)(=O)N2CCOCC2)cc1C(=O)NC(=O)CCl [compound 11]
- isoTOP-ABPP ratio, cysteine Q9UPT9_C171 ([3]; 100 μM in situ 231): 0.8
- isoTOP-ABPP ratio, cysteine Q9NUI1_C22 ([4]; 100 μM in situ 231): 2.1

SMILES: O=C(CCl)NC(=O)NC12CC3CC(CC(C3)C1)C2 [compound 12]
- isoTOP-ABPP ratio, cysteine P05091_C319 ([1]; 200 μM, insitu, 231): 20.0

SMILES: O=C(CCl)N1CCN(CC(=O)N2CCOCC2)CC1 [compound 29]
- isoTOP-ABPP ratio P05091_C319 ([1]; 200 μM, insitu, ramos): 10.5

SMILES: Cc1ccc(C=C(C#N)C(=O)NCCN2CCOCC2)cc1 [compound 41]
- isoTOP-ABPP ratio P05091_C319 ([1]; 200 μM, insitu, 231): 0.9

SMILES: CC1CCc2ccccc2N1C(=O)CCl (stereo not drawn) [compound 45]
- isoTOP-ABPP ratio P05091_C319 ([1]; 200 μM, insitu, 231): 20.0
- isoTOP-ABPP ratio Q8IU81_C363 [2]: 1.7
- isoTOP-ABPP ratio Q9NUI1_C22 [4]: 17.0
